The target of one assay is T1, Wee1 kinase domain (Homo sapiens, UniProt P30291).
T1 construct: Wee1 kinase domain was purchased from Carna (catalog #05-177); purchased Carna 05-177
Description: Wee1 Kinase Biochemical Assay (ADP-Glo). The settings on record: Wee1 kinase domain, 15 uM ATP, ADP-Glo. Put shortly:
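ADP-Glo detection of ADP produced after 4 h at 25° C by 1 nM Wee1 kinase domain on 2 ng/mL poly(Lys,Tyr 4:1) with 15 uM ATP. Buffer: 40 mM Tris-HCl, 20 mM MgCl2, 0.1 mg/mL BSA, 2 mM DTT. Inhibition is relative to DMSO (high) and saturating Wee1 inhibitor (low) controls.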

Assay [1] concerns phosphorylation of Cdc2 Y15 (Wee1 substrate) in A427 cells. The assay can be described thus: Phosphorylated Cdc2 MSD Electrochemiluminescence Assay. The assay is classed as cell-based. The settings on record: Homo sapiens, A-427, pCDC2 MSD. Put shortly: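 Read-out: percent residual phospho-Cdc2 Y15 relative to DMSO and positive-control Wee1 inhibitor, measured by MSD electrochemiluminescence capture/detection antibody assay in cell lysates. A427 cells received duplicate 3-fold compound dilution series 20 h post-seeding, with 6 h total incubation at 37 °C.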

Molecules are shown by their SMILES.

T1 sequence (P30291 299-569 limits assumed): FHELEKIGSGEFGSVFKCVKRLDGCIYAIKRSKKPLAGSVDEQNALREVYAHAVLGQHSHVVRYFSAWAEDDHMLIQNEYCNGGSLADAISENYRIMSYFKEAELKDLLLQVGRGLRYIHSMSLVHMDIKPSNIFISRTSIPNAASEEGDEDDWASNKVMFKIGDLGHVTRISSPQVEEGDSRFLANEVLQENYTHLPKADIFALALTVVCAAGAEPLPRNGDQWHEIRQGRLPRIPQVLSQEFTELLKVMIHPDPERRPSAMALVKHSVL

With `C[C@H]1COC(=O)N1c1cccc(N2c3nc(Nc4cn(C5CCN(C)CC5)nn4)ncc3[C@@]3(C)COC(C)(C)C[C@@H]23)n1` (single isomer, unassigned) [Example 253], the figures for the IC50 (at Wee1 kinase domain; in assay [1]) were under 10 nM and 100 to 1000 nM, respectively.

Take `C[C@H]1COC(=O)N1c1cccc(N2c3nc(Nc4cnn(C5CCNCC5)c4)ncc3[C@@]3(C)COC(C)(C)C[C@@H]23)n1` (single isomer, unassigned) [Example 255]: the concentration for half-maximal inhibition (IC50) against Wee1 kinase domain is under 10 nM; in assay [1] it was 100 to 1000 nM.

As to `C[C@H]1COC(=O)N1c1cccc(N2c3nc(Nc4ccc([C@@H]5CCNC5)nc4)ncc3[C@@]3(C)COC(C)(C)C[C@@H]23)n1` (single isomer, unassigned) [Example 257], the IC50 is under 10 nM against Wee1 kinase domain and 100 to 1000 nM in assay [1].

`C[C@H]1COC(=O)N1c1cccc(N2c3nc(Nc4ccc([C@H]5CCNC5)nc4)ncc3[C@@]3(C)COC(C)(C)C[C@@H]23)n1` (single isomer, unassigned) [Example 259]: the figures for the half-inhibitory concentration (IC50) (against Wee1 kinase domain; in assay [1]) were under 10 nM and 100 to 1000 nM, respectively.

As to `C[C@H]1COC(=O)N1c1cccc(N2c3nc(Nc4ccc(N5CCNCC5)cc4)ncc3[C@@]3(C)COC(C)(C)C[C@@H]23)n1` (single isomer, unassigned) [Example 260], the IC50 on Wee1 kinase domain is under 10 nM; in assay [1], 100 to 1000 nM.

`C[C@H]1COC(=O)N1c1cccc(N2c3nc(Nc4ccc([C@H]5CCN(C)C5)nc4)ncc3[C@]3(C)COC(C)(C)C[C@H]23)n1` (single isomer, unassigned) [Example 262]: the IC50 (on Wee1 kinase domain; in assay [1]) was 100 to 1000 nM each time.

For the compound `C[C@H]1COC(=O)N1c1cccc(N2c3nc(Nc4ccc([C@H]5CCN(C)C5)nc4)ncc3[C@@]3(C)COC(C)(C)C[C@@H]23)n1` (single isomer, unassigned) [Example 263], the values for the half-inhibitory concentration (IC50) (against Wee1 kinase domain; in assay [1]) were under 10 nM and under 100 nM, respectively.

As for `C[C@H]1COC(=O)N1c1cccc(N2c3nc(Nc4ccc([C@@H]5CCN(C)C5)nc4)ncc3[C@]3(C)COC(C)(C)C[C@H]23)n1` (single isomer, unassigned) [Example 264], the IC50 against Wee1 kinase domain is 10 to 100 nM; in assay [1], 100 to 1000 nM.

For the compound `C[C@H]1COC(=O)N1c1cccc(N2c3nc(Nc4ccc([C@@H]5CCN(C)C5)nc4)ncc3[C@@]3(C)COC(C)(C)C[C@@H]23)n1` (single isomer, unassigned) [Example 265], the concentration for half-maximal inhibition (IC50) is under 10 nM against Wee1 kinase domain and under 100 nM in assay [1].

Regarding `Cc1cc(Nc2ncc3c(n2)N(c2cccc(N4C(=O)OC[C@@H]4C)n2)[C@@H]2CC(C)(C)OC[C@]32C)ccc1[C@H]1CCNC1` (single isomer, unassigned) [Example 267], the values for the IC50 (on Wee1 kinase domain; in assay [1]) were under 10 nM and 100 to 1000 nM, respectively.

As to `Cc1cc(Nc2ncc3c(n2)N(c2cccc(N4C(=O)OC[C@@H]4C)n2)[C@@H]2CC(C)(C)OC[C@]32C)ccc1[C@@H]1CCNC1` (single isomer, unassigned) [Example 269], the IC50 is under 10 nM on Wee1 kinase domain and 100 to 1000 nM in assay [1].

Regarding `C[C@H]1COC(=O)N1c1cccc(N2c3nc(Nc4ccc(N5CCN(C)CC5=O)cc4)ncc3[C@@]3(C)COC(C)(C)C[C@@H]23)n1` (single isomer, unassigned) [Example 271], the half-inhibitory concentration (IC50) against Wee1 kinase domain was under 10 nM; in assay [1] it was 100 to 1000 nM.

With `C[C@H]1COC(=O)N1c1cccc(N2c3nc(Nc4ccn(C5CCN(C)CC5)c(=O)c4)ncc3[C@@]3(C)COC(C)(C)C[C@@H]23)n1` (single isomer, unassigned) [Example 273], the results for the IC50 (against Wee1 kinase domain; in assay [1]) were under 10 nM and 100 to 1000 nM, respectively.

Take `C[C@H]1COC(=O)N1c1cccc(N2c3nc(Nc4ccc([C@@H]5CCNC5)cc4)ncc3[C@@]3(C)COC(C)(C)C[C@@H]23)n1` (single isomer, unassigned) [Example 275]: the IC50 was under 10 nM on Wee1 kinase domain and 100 to 1000 nM in assay [1].

As for `C[C@H]1COC(=O)N1c1cccc(N2c3nc(Nc4ccc(N5C[C@H]6C[C@@H]5CN6)cc4)ncc3[C@@]3(C)COC(C)(C)C[C@@H]23)n1` (single isomer, unassigned) [Example 277], the IC50 at Wee1 kinase domain is under 10 nM; in assay [1], 100 to 1000 nM.

Turning to `C[C@H]1COC(=O)N1c1cccc(N2c3nc(Nc4ccc([C@H]5CCNC5)cc4)ncc3[C@@]3(C)COC(C)(C)C[C@@H]23)n1` (single isomer, unassigned) [Example 279], the IC50 is under 10 nM against Wee1 kinase domain and 100 to 1000 nM in assay [1].

As to `C[C@H]1COC(=O)N1c1cccc(N2c3nc(Nc4ccc(O[C@H]5CCN(C)C5)nc4)ncc3[C@@]3(C)COC(C)(C)C[C@@H]23)n1` (single isomer, unassigned) [Example 281], the IC50 was under 10 nM against Wee1 kinase domain and 100 to 1000 nM in assay [1].

Regarding `C[C@H]1COC(=O)N1c1cccc(N2c3nc(Nc4ccc(O[C@@H]5CCN(C)C5)nc4)ncc3[C@@]3(C)COC(C)(C)C[C@@H]23)n1` (single isomer, unassigned) [Example 283], the IC50 at Wee1 kinase domain was under 10 nM; in assay [1], 100 to 1000 nM.

For the compound `C[C@H]1COC(=O)N1c1cccc(N2c3nc(Nc4ccc(O[C@H]5CCNC5)nc4)ncc3[C@@]3(C)COC(C)(C)C[C@@H]23)n1` (single isomer, unassigned) [Example 285], the IC50 against Wee1 kinase domain is under 10 nM; in assay [1] it was 100 to 1000 nM.

As to `C[C@H]1COC(=O)N1c1cccc(N2c3nc(Nc4ccc(O[C@@H]5CCNC5)nc4)ncc3[C@@]3(C)COC(C)(C)C[C@@H]23)n1` (single isomer, unassigned) [Example 287], the half-inhibitory concentration (IC50) at Wee1 kinase domain is under 10 nM; in assay [1], 100 to 1000 nM.

Consider `Cc1cc(Nc2ncc3c(n2)N(c2cccc(N4C(=O)OC[C@@H]4C)n2)[C@@H]2CC(C)(C)OC[C@]32C)ccc1N1C[C@H]2C[C@@H]1CN2C` (single isomer, unassigned) [Example 289], for which the IC50 is under 10 nM on Wee1 kinase domain and 100 to 1000 nM in assay [1].

As for `C[C@H]1COC(=O)N1c1cccc(N2c3nc(Nc4ccc(N5C[C@H]6C[C@@H]5CN6C)c(F)c4)ncc3[C@@]3(C)COC(C)(C)C[C@@H]23)n1` (single isomer, unassigned) [Example 291], the concentration for half-maximal inhibition (IC50) against Wee1 kinase domain is under 10 nM; in assay [1], 100 to 1000 nM.

In the case of `C[C@H]1COC(=O)N1c1cccc(N2c3nc(Nc4ccc(N5C[C@@H]6C[C@H]5CN6C)c(F)c4)ncc3[C@@]3(C)COC(C)(C)C[C@@H]23)n1` (single isomer, unassigned) [Example 293], the 50% inhibitory concentration (IC50) on Wee1 kinase domain is under 10 nM; in assay [1] it was 100 to 1000 nM.

For the compound `Cc1cc(Nc2ncc3c(n2)N(c2cccc(N4C(=O)OC[C@@H]4C)n2)[C@@H]2CC(C)(C)OC[C@]32C)ccc1N1C[C@@H]2C[C@H]1CN2C` (single isomer, unassigned) [Example 295], the half-inhibitory concentration (IC50) against Wee1 kinase domain is under 10 nM; in assay [1], 100 to 1000 nM.

For the compound `C[C@H]1COC(=O)N1c1cccc(N2c3nc(Nc4ccc(C5CCN(C)CC5)nc4)ncc3[C@@]3(C)COC(C)(C)C[C@@H]23)n1` (single isomer, unassigned) [Example 297], the IC50 was under 10 nM at Wee1 kinase domain and 100 to 1000 nM in assay [1].

For the compound `C[C@H]1COC(=O)N1c1cccc(N2c3nc(Nc4ccc(N5CCCN(C)CC5)cc4)ncc3[C@@]3(C)COC(C)(C)C[C@@H]23)n1` (single isomer, unassigned) [Example 299], the figures for the IC50 (against Wee1 kinase domain; in assay [1]) were under 10 nM and 100 to 1000 nM, respectively.

For the compound `C[C@H]1COC(=O)N1c1cccc(N2c3nc(Nc4ccc(C(C)(C)C)nc4)ncc3[C@@]3(C)COC(C)(C)C[C@@H]23)n1` (single isomer, unassigned) [Example 301], the IC50 against Wee1 kinase domain was under 10 nM; in assay [1], 1000 to 10000 nM.

Usually IC50 stands for the concentration needed to halve the response being measured. A high value points to a need for much substance.

Values taken from US20260166039A1 (SCHRÖDINGER, INC., priority 2022, published 2026).
